“Also recorded” adds a separate entry of the source.
Columns and labels:
[1] = tested on: Human Beta Amyloid [1-40] (Aβ40) production in HeLa cell line transfected with Human APP; assay: Inhibition of Aβ40 production, HeLa cell line transfected with Human APP, colorimetric ELISA of culture medium; type: cell-based; conditions: for inhibitory effect on Aβ40 production, dependence on concentration (in words): over the concentrations tested
Excerpt: (§1) To investigate in vitro inhibitory activity of Lycoris aurea extracts against beta-amyloid production, a HeLa cell line transfected with Human APP was used. This cell line was provided from Professor Tae-Wan Kim (Department of Pathology, Columbia University Medical Center, New York, N.Y. 10032, USA). For the quantity analysis of major beta-amyloids, Aβ40, and Aβ42, which are resulted from the activity of gamma-secretase secreted from cells, Human Beta Amyloid (Aβ40), and Human Beta Amyloid (Aβ42) Colorimetric ELISA Kit (#KHB3482 and #KHB3442; BioSource International, Inc., USA) were each used.
(§2) The alcohol extracts of Lycoris aurea (CN1-M, see Example 1) with certain concentrations set forth in Table 1 below were added to the cell culture medium (DMEM culture medium #11995; GIBCO) cultured with the transfected HeLa cells, which were then cultured at 37° C. for 8 hours. A transfected HeLa cell culture medium with no treatment, to which no Lycoris aurea alcohol extracts were added, was used as a negative control.

[2] = tested on: cells; assay: MTT Cell Proliferation assay, cell death activity; type: cell-based; conditions: 8 hours; for cytotoxicity (in words): up to 10 μg/ml
Description: In order to investigate the cell death activity caused by the compounds, lycoricidine and lycoricidinol, MTT Cell Proliferation assay method was used (ATCC catalog #30-1010K, Manassas, USA). After cells were treated with each compound having various concentrations for 8 hours, viable cells were measured quantitatively, and the results are shown in Table 7 and FIG. 8.

[3] = tested on: Human Beta Amyloid [1-42] (Aβ42) production in HeLa cell line transfected with Human APP; assay: Inhibition of Aβ42 production, HeLa cell line transfected with Human APP, colorimetric ELISA of culture medium; type: cell-based; conditions: for inhibitory effect on Aβ42 production, dependence on concentration (in words): over the concentrations tested
Excerpt: as §1, §2

[4] = tested on: sAPPα; assay: Western blot of sAPPα (product of alpha-secretase activity), band density; type: cell-based; conditions: 0.1 μg/ml; for effect on secretion / production change of sAPPα (in words): Western blot; for Reduction Rate of sAPPα (%) Against Negative Control: band density of Western blot
Description: (§3) Effects of the compounds on the production of a product resulted from the activity of alpha-secretase, sAPPα and a product resulted from the activity of beta-secretase, sAPPβ, were investigated through the Western blot methods of sAPPα and sAPPβ, and the results are shown in FIG. 6. […] The band densities of sAPPα and sAPPβ were measured from the Western blot results of FIG. 6, and the results are shown Table 6 and FIG. 7.

[5] = tested on: alpha-secretase; assay: Alpha-secretase activity assay kit with total membrane proteins from HeLa cells; type: biochemical; conditions: for Activity Change Rate of Alpha-Secretase (%) against Negative Control: 100%: No Change; for change of the activity of the alpha-secretase (in words): 0.01 and 0.1 μg/ml
Excerpt: In order to investigate which secretase is responsible for the inhibitory effects of the compounds on Aβ production, an activity assay kit (#CBA042; Calbiochem, USA) of the alpha-secretase was used. For the alpha-secretase, the total membrane proteins obtained from the HeLa cells (see Test Example 1) were used.

[6] = tested on: sAPPβ; assay: Western blot of sAPPβ (product of beta-secretase activity), band density; type: cell-based; conditions: 0.1 μg/ml; for effect on secretion / production change of sAPPβ (in words): Western blot; for Reduction Rate of sAPPβ (%) Against Negative Control: band density of Western blot
Description: as §3

| SMILES | inhibitory effect on Aβ40 production, dependence on concentration (in words) [1] | Cell Death Rate (%) against Negative Control ([2]; 0.01 μg/ml) | Cell Death Rate (%) against Negative Control ([2]; 0.1 μg/ml) | Cell Death Rate (%) against Negative Control ([2]; 1 μg/ml) | Cell Death Rate (%) against Negative Control ([2]; 10 μg/ml) | cytotoxicity (in words) [2] | inhibitory effect on Aβ42 production, dependence on concentration (in words) [3] | effect on secretion / production change of sAPPα (in words) [4] | Reduction Rate of sAPPα (%) Against Negative Control [4] | Activity Change Rate of Alpha-Secretase (%) against Negative Control ([5]; 0.01 μg/ml) | Activity Change Rate of Alpha-Secretase (%) against Negative Control ([5]; 0.1 μg/ml) | change of the activity of the alpha-secretase (in words) [5] | effect on secretion / production change of sAPPβ (in words) [6] | Reduction Rate of sAPPβ (%) Against Negative Control [6] | further results |
| --- | --- | --- | --- | --- | --- | --- | --- | --- | --- | --- | --- | --- | --- | --- | --- |
| O=C1NC2C(=CC(O)C(O)C2O)c2cc3c(c(O)c21)OCO3 (centres unmarked) [Lycoricidinol, lycoricidinol] | concentration-dependent | 10.3% | 11.6% | 16.5% | 19.3% | not cytotoxic | concentration-dependent | did not affect the secretion; also recorded: not significant | 1.0% | 94% | 100% | did not change the activity | did not affect the secretion; also recorded: not significant | 7.5% | Aβ40 Production Inhibitory Rate (%) against Negative Control ([1]; 0.01 μg/ml): 25.0%; Aβ40 Production Inhibitory Rate (%) against Negative Control ([1]; 0.1 μg/ml): 90.4%; Aβ40 Production Inhibitory Rate (%) against Negative Control ([1]; 1 μg/ml): 97.8%; Aβ40 Production Inhibitory Rate (%) against Negative Control ([1]; 10 μg/ml): 98.4%; Aβ42 Production Inhibitory Rate (%) against Negative Control ([3]; 0.01 μg/ml): 44.0%; Aβ42 Production Inhibitory Rate (%) against Negative Control ([3]; 0.1 μg/ml): 97.0%; Aβ42 Production Inhibitory Rate (%) against Negative Control ([3]; 1 μg/ml): 100%; Aβ42 Production Inhibitory Rate (%) against Negative Control ([3]; 10 μg/ml): 100% |
| O=C1NC2C(=CC(O)C(O)C2O)c2cc3c(cc21)OCO3 (centres unmarked) [Lycoricidine, lycoricidine] | concentration-dependent | 4.9% | 11.3% | 19% | 21.1% | not cytotoxic | concentration-dependent | did not affect the secretion; also recorded: not significant | 12% | 106% | 110% | did not change the activity | did not affect the secretion; also recorded: not significant | 17% | inhibition at 0.01 µg/mL ([1]; Homo sapiens, HeLa, 0.01 μg/ml, read-out: Aβ40 Production Inhibitory Rate (%) against Negative Control): 3.3%; inhibition at 0.1 µg/mL ([1]; Homo sapiens, HeLa, 0.1 μg/ml, read-out: Aβ40 Production Inhibitory Rate (%) against Negative Control): 67%; inhibition at 1 µg/mL ([1]; Homo sapiens, HeLa, 1 μg/ml, read-out: Aβ40 Production Inhibitory Rate (%) against Negative Control): 92.8%; inhibition at 10 µg/mL ([1]; Homo sapiens, HeLa, 10 μg/ml, read-out: Aβ40 Production Inhibitory Rate (%) against Negative Control): 97.2%; inhibition at 0.01 µg/mL ([3]; Homo sapiens, HeLa, 0.01 μg/ml, read-out: Aβ42 Production Inhibitory Rate (%) against Negative Control): 16%; inhibition at 0.1 µg/mL ([3]; Homo sapiens, HeLa, 0.1 μg/ml, read-out: Aβ42 Production Inhibitory Rate (%) against Negative Control): 81.3%; inhibition at 1 µg/mL ([3]; Homo sapiens, HeLa, 1 μg/ml, read-out: Aβ42 Production Inhibitory Rate (%) against Negative Control): 97.5%; inhibition at 10 µg/mL ([3]; Homo sapiens, HeLa, 10 μg/ml, read-out: Aβ42 Production Inhibitory Rate (%) against Negative Control): 100% |

From patent US20130261147A1, “COMPOSITION FOR PREVENTING OR TREATING DEMENTIA” (priority 2010, published 2013)
